Measured values from article PMC11510191, “Exploring Benzo[h]chromene Derivatives as Agents against Protozoal and Mycobacterial Infections” (Pharmaceuticals, 2024).
Values after ≈ are worked out from the molar mass of the structure shown. Where two headings read alike, the source gives them in different places.

Experiments:
T. cruzi epimastigotes = experiment: Trypanocidal activity on T. cruzi epimastigotes (CL-B5 lacZ, CPRG); assay type: cell-based, Trypanosoma cruzi clone CL-B5; details: for IC50: Trypanosoma cruzi, 72 h, epimastigotes, read-out: Trypanocidal Activity IC50 T. cruzi
Experimental: For in vitro studies of T. cruzi. the clone CL-B5 was used. Parasites were stably transfected with the Escherichia coli β-galactosidase gene (lacZ), provided by Facultad de Farmacia (Universidad Complutense de Madrid). Epimastigotes were grown at 28 °C in liver infusion tryptose broth (Difco, Detroit, MI, USA) with 10% fetal bovine serum (FBS) (Gibco, Carlsbad, CA, USA), penicillin (Ern S.A., Barcelona, Spain), and streptomycin (Reig Jofré S.A., Barcelona. Spain), as described previously, and harvested during the exponential growth phase. Briefly, the screening assay was performed in 96-well microplates (Sarstedt, Inc., Newton, NC, USA) with cultures that had not reached the stationary phase. Briefly, epimastigotes were seeded at 2 × 10^5 parasites/mL in 200 µL growth media. The plates were then incubated with the respective compounds at 28 °C for 72 h. Afterwards, 50 µL of CPRG solution was added, resulting in a final concentration of 200 µM. The plates were incubated at 37 °C for an additional 4 h and then read at 595 nm. Each concentration was tested in triplicate. […] These values were calculated from the sigmoidal dose–response curve adjustment using the statistical software program Graph-Pad Prims 3.0. Benznidazole was used as a reference drug.

[1] = Cytotoxicity on L929 fibroblasts (resazurin); details: mouse
[2] = test system: Leishmania brazilensis (L. b) promastigotes; experiment: Leishmanicidal activity on L. braziliensis promastigotes (resazurin); details: Leishmania, 48 h, read-out: Leishmanicidal Activity IC50—L. b
Experimental: (§1) The culture of L. braziliensis (MHOM/CO/88/UA301) and L. infantum (MCAN/ES/92/BCN83) was obtained from the Facultad de Farmacia, Universidad Complutense de Madrid, Spain.
(§2) The maintenance of the strains, the form of cultivation, and the isolation of shape promastigota followed the procedures described by Roldós et al. [8]. The promastigotes were grown at 22 °C in Schneider’s Drosophila medium supplemented with 20% FBS. The assay was performed using a modification of a previous method [47]. Promastigotes (2 × 10^6 parasites/well) were cultured in 96-well plastic plates. Compounds were dissolved in dimethylsulfoxide (DMSO). Different dilutions of the compounds up to a 200 µL final volume were added. After 48 h at 26 °C, 20 µL of 2 mM resazurin solution was added and the oxidation–reduction was quantified at 570 and 600 nm. The solution of resazurin was prepared at 2.5 mM in phosphate-buffered solution (PBS), pH 7.4, and filtered through 0.22 µM prior to use. All tests were carried out in triplicate. Resazurin sodium salt was obtained from Sigma–Aldrich (St. Louis, MO, USA) and stored at 4 °C protected from light. The efficacy of each compound was estimated by calculating the IC50 values.

[3] = test system: Leishmania infantum (L. i) promastigotes; experiment: Leishmanicidal activity on L. infantum promastigotes (resazurin); details: Leishmania infantum, 48 h, read-out: Leishmanicidal Activity IC50—L. i
Experimental: as §1, §2

[4] = test system: M. tuberculosis CIPTIR -D152; experiment: MIC broth microdilution; assay type: cell-based; details: Mycobacterium tuberculosis
[5] = test system: M. tuberculosis ATCC H37Rv; experiment: MIC broth microdilution; assay type: cell-based; details: Mycobacterium tuberculosis
M. fortuitum LIID-01 = experiment: MIC broth microdilution; assay type: cell-based; details: Mycolicibacterium fortuitum, LIID01, 72 h
P. aeruginosa (G−) = experiment: MIC broth microdilution; assay type: cell-based; details: Pseudomonas aeruginosa, 24 h
L. monocytogenes (G+) = experiment: MIC broth microdilution; assay type: cell-based; details: Listeria monocytogenes, 24 h
B. cereus (G+) = experiment: MIC broth microdilution; assay type: cell-based; details: Bacillus cereus, 24 h
[6] = test system: M. intracellulare LIID-01; experiment: MIC broth microdilution; assay type: cell-based; details: Mycobacterium intracellulare, LIID01
L. innocua (G+) = experiment: MIC broth microdilution; assay type: cell-based; details: Listeria innocua, 24 h
[7] = test system: M. intracellulare LIID-02; experiment: MIC broth microdilution; assay type: cell-based; details: Mycobacterium intracellulare, LIID02
M. abscessus LIID-03 = experiment: MIC broth microdilution; assay type: cell-based; details: Mycobacteroides abscessus, LIID03, 72 h
M. abscessus LIID-02 = experiment: MIC broth microdilution; assay type: cell-based; details: Mycobacteroides abscessus, LIID02, 72 h
S. typhi (G−) = experiment: MIC broth microdilution; assay type: cell-based; details: Salmonella enterica, 24 h
S. aureus (G+) = experiment: MIC broth microdilution; assay type: cell-based; details: Staphylococcus aureus, 24 h
M. luteus (G+) = experiment: MIC broth microdilution; assay type: cell-based; details: Micrococcus luteus, 24 h
E. coli (G−) = experiment: MIC broth microdilution; assay type: cell-based; details: Escherichia coli, 24 h
M. abscessus LIID-01 = experiment: MIC broth microdilution; assay type: cell-based; details: Mycobacteroides abscessus, LIID01, 72 h
[8] = test system: M. tuberculosis CIPTIR-F296; experiment: MIC broth microdilution; assay type: cell-based; details: Mycobacterium tuberculosis, CIPTIRF296
E. faecalis (G+) = experiment: MIC broth microdilution; assay type: cell-based; details: Enterococcus faecalis, 24 h

CC1(C)C=Cc2c(OC(=O)CCCc3cn(-c4ccccc4)nn3)c(OC(=O)CCCc3cn(-c4ccccc4)nn3)c3ccccc3c2O1 [Compound 3a]
IC50 (T. cruzi epimastigotes): > 256 µM
CC50 at 24 h [1]: > 256 µM
IC50 [2]: > 256 µM
IC50 [3]: > 256 µM

COc1ccc(-n2cc(CCCC(=O)Oc3c4c(c5ccccc5c3OC(=O)CCCc3cn(-c5ccc(OC)cc5)nn3)OC(C)(C)C=C4)nn2)cc1 [Compound 3b]
IC50 (T. cruzi epimastigotes): > 256 µM
CC50 at 24 h [1]: > 256 µM
IC50 [2]: > 256 µM
IC50 [3]: > 256 µM

CC1(C)C=Cc2c(OC(=O)CCCc3cn(-c4ccc(Cl)cc4)nn3)c(OC(=O)CCCc3cn(-c4ccc(Cl)cc4)nn3)c3ccccc3c2O1 [Compound 3c]
IC50 (T. cruzi epimastigotes): > 256 µM
CC50 at 24 h [1]: > 256 µM
IC50 [2]: > 256 µM
IC50 [3]: > 256 µM

Cc1ccc(-n2cc(CCCC(=O)Oc3c4c(c5ccccc5c3OC(=O)CCCc3cn(-c5ccc(C)cc5)nn3)OC(C)(C)C=C4)nn2)cc1 [Compound 3d]
IC50 (T. cruzi epimastigotes): > 256 µM
CC50 at 24 h [1]: > 256 µM
IC50 [2]: > 256 µM
IC50 [3]: > 256 µM

CC(=O)O[C@@H]1[C@@H](OC(C)=O)[C@H](OC(C)=O)CO[C@H]1n1cc(CCCC(=O)Oc2c3c(c4ccccc4c2OC(=O)CCCc2cn([C@@H]4OC[C@@H](OC(C)=O)[C@H](OC(C)=O)[C@H]4OC(C)=O)nn2)OC(C)(C)C=C3)nn1 [Compound 3e]
MIC [4]: > 200 µg/mL
MIC ([5]; H37RV): > 200 µg/mL
MIC (M. fortuitum LIID-01): > 200 µg/mL
MIC (P. aeruginosa (G−)): > 200 µg/mL
MIC (L. monocytogenes (G+)): > 200 µg/mL
IC50 (T. cruzi epimastigotes): > 256 µM
MIC (B. cereus (G+)): > 200 µg/mL
MIC [6]: 50 µg/mL (≈ 48.4 µM)
MIC (L. innocua (G+)): > 200 µg/mL
CC50 at 24 h [1]: > 256 µM
IC50 [2]: > 256 µM
MIC [7]: > 200 µg/mL
MIC (M. abscessus LIID-03): > 200 µg/mL
MIC (M. abscessus LIID-02): > 200 µg/mL
MIC (S. typhi (G−)): 100 µg/mL (≈ 96.8 µM)
MIC (S. aureus (G+)): > 200 µg/mL
MIC (M. luteus (G+)): > 200 µg/mL
MIC (E. coli (G−)): > 200 µg/mL
MIC (M. abscessus LIID-01): > 200 µg/mL
MIC [8]: > 200 µg/mL
MIC (E. faecalis (G+)): > 200 µg/mL
IC50 [3]: > 256 µM

CC1(C)C=Cc2c(OC(=O)CCCc3cn(-c4cccc(Cl)c4)nn3)c(OC(=O)CCCc3cn(-c4cccc(Cl)c4)nn3)c3ccccc3c2O1 [Compound 3g]
Selectivity Index L929/ T. cruzi (T. cruzi epimastigotes; SI = CC50 L929/IC50 parasites): >3
IC50 (T. cruzi epimastigotes): 146 µM
CC50 at 24 h [1]: > 384 µM
IC50 [2]: > 256 µM
IC50 [3]: > 256 µM

CC1(C)C=Cc2c(OC(=O)CCCc3cn(Cc4ccc(Br)cc4)nn3)c(OC(=O)CCCc3cn(Cc4ccc(Br)cc4)nn3)c3ccccc3c2O1 [Compound 3i]
IC50 (T. cruzi epimastigotes): > 256 µM
CC50 at 24 h [1]: > 256 µM
IC50 [2]: > 256 µM
IC50 [3]: > 256 µM

CNC(C)C1CCC(N)C(OC2C(N)CC(N)C(OC3OCC(C)(O)C(NC)C3O)C2O)O1 (centres unmarked) [Gentamicin, reference compound]
MIC (P. aeruginosa (G−)): 0.78 µg/mL (≈ 1.63 µM)
MIC (L. monocytogenes (G+)): 0.2 µg/mL (≈ 0.419 µM)
MIC (B. cereus (G+)): 0.78 µg/mL (≈ 1.63 µM)
MIC (L. innocua (G+)): 1.56 µg/mL (≈ 3.27 µM)
MIC (S. typhi (G−)): 0.1 µg/mL (≈ 0.209 µM)
MIC (S. aureus (G+)): 0.1 µg/mL (≈ 0.209 µM)
MIC (M. luteus (G+)): 0.78 µg/mL (≈ 1.63 µM)
MIC (E. coli (G−)): 0.2 µg/mL (≈ 0.419 µM)
MIC (E. faecalis (G+)): 0.78 µg/mL (≈ 1.63 µM)

C[C@@H](O)[C@H]1C(=O)N2C(C(=O)O)=C(SCCN=CN)C[C@H]12 [Imipenem, reference compound]
MIC (M. fortuitum LIID-01): 4 µg/mL (≈ 13.4 µM)
MIC [6]: 1 µg/mL (≈ 3.34 µM)
MIC [7]: > 64 µg/mL
MIC (M. abscessus LIID-03): 8 µg/mL (≈ 26.7 µM)
MIC (M. abscessus LIID-02): 32 µg/mL (≈ 107 µM)
MIC (M. abscessus LIID-01): 32 µg/mL (≈ 107 µM)

CC(=O)NC[C@H]1CN(c2ccc(N3CCOCC3)c(F)c2)C(=O)O1 [Linezolid, reference compound]
MIC (M. fortuitum LIID-01): 8 µg/mL (≈ 23.7 µM)
MIC [6]: 2 µg/mL (≈ 5.93 µM)
MIC [7]: 8 µg/mL (≈ 23.7 µM)
MIC (M. abscessus LIID-03): 1 µg/mL (≈ 2.96 µM)
MIC (M. abscessus LIID-02): 1 µg/mL (≈ 2.96 µM)
MIC (M. abscessus LIID-01): 1 µg/mL (≈ 2.96 µM)

CO[C@H]1/C=C/O[C@@]2(C)Oc3c(C)c(O)c4c(O)c(c(/C=N/N5CCN(C)CC5)c(O)c4c3C2=O)NC(=O)/C(C)=C\C=C\[C@H](C)[C@H](O)[C@@H](C)[C@@H](O)[C@@H](C)[C@H](OC(C)=O)[C@@H]1C [Rifampicin, reference compound]
MIC ([4]; M. tuberculosis CIPTIR -D152, read-out: MIC): 32 µg/mL (≈ 38.9 µM)
MIC ([5]; M. tuberculosis ATCC H37Rv, read-out: MIC): 2 µg/mL (≈ 2.43 µM)
MIC ([8]; M. tuberculosis CIPTIR-F296, read-out: MIC): 1 µg/mL (≈ 1.22 µM)
